Experimental data as given in patent US20210181109A1 (FUJIFILM Corporation, priority 2018, published 2021).
Where a name gives a salt, the structure may show the parent alone. Read-outs that look alike come from different tables or passages of the source.

Key:
[1] = NAC depletion percent, HPLC-fluorescence detection
Procedure, shortened: (§1)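 NAC at 5 μmol/L in pH 8.0 phosphate buffer reacted with test substance (1 mmol/L stock in water, acetonitrile, acetone or 5% DMSO/acetonitrile) 24 h at 25 °C in the dark, n=3. Stopped with TFA (0.5% final); unreacted NAC quantified by HPLC, depletion percent calculated against blank without test substance.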

[2] = NAL depletion percent, HPLC-fluorescence detection
Procedure, shortened: (§2)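 NAL (5 μmol/L, pH 10.2 phosphate buffer) reacted with test substance (1 mmol/L stock in water, acetonitrile, acetone or 5% DMSO/acetonitrile) for 24 h at 25 °C in the dark; stopped with TFA to 0.5%. Unreacted NAL quantified by HPLC (UV or fluorescence), n=3; depletion % relative to substance-free blank.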

[3] = NAC depletion percent, HPLC-UV detection (281 nm); details: Reference (UV method)
Procedure, shortened: as §1

[4] = Average score of NAC and NAL depletion and prediction of skin allergenicity, fluorescence method; details: for Average score: test substance solution 1 mmol/L
Procedure, shortened: (§3)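 Score is the mean of NAC and NAL depletion percentages, rounded at the second decimal place. Test substances classed as allergenic (S) or non-allergenic (NS) from depletion of NAC, NAL, or their average score.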

[5] = NAL depletion percent, HPLC-UV detection (281 nm); details: Reference (UV method)
Procedure, shortened: as §2

[6] = Average score of NAC and NAL depletion and prediction of skin allergenicity, UV method; details: for Average score: test substance solution 1 mmol/L
Procedure, shortened: as §3

[7] = cited from earlier work
[8] = single substance, test substance solution 1 mmol/L, fluorescence method
[9] = single substance, test substance solution 1 mmol/L
[10] = single substance, fluorescence method, criterion average score […]
[11] = single substance, fluorescence method
[12] = single substance, Reference (UV method), criterion average score […]
[13] = single substance, Reference (UV method)
[14] = known values, LLNA-test-based classification, − for non-allergenic substances
[15] = Fluorescence method, non-allergenic substance

Row | Structure (SMILES) | NAC depletion (%) [1, 8] [%] | NAL depletion (%) [2, 8] [%] | NAC depletion (%) [3, 9] [%] | Prediction result [4, 10] | Average score [4, 11] [%] | NAL depletion (%) [5, 9] [%] | Prediction result [6, 12] | Average score [6, 13] [%] | EC3 (%) [7, 14] [%] | NAC depletion (%) [1, 15] [%] | NAL depletion (%) [2, 15] [%] | NAC depletion (%) ([3]; non-allergenic substance) | Prediction result [4] | NAL depletion (%) ([5]; non-allergenic substance) | Prediction result [6] | EC3 (%) ([7]; in vivo)
1 | CC(C)(C)C(=O)CC(=O)C(C)(C)C [2,2,6,6-Tetramethyl-3,5-heptanedione] | 0.0 | 0.0 | 0.5 | NS (NS represents as being a non-allergenic substance) | 0.0 | 1.6 | NS (NS represents as being a non-allergenic substance) | 1.1 | 27 |  |  |  |  |  |  | 
2 | CCC=CC=CC=O [2,4-Heptadienal] | 46.2 | 11.8 | 35.8 | S (S represents as being an allergenic substance) | 29.0 | 50.1 | S (S represents as being an allergenic substance) | 42.9 | 4 |  |  |  |  |  |  | 
3 | Sc1nc2ccccc2s1 [2-Mercaptobenzothiazole] | 65.5 | 0.0 | 56.6 | S (S represents as being an allergenic substance) | 32.7 | 0.3 | S (S represents as being an allergenic substance) | 28.4 | 1.7 |  |  |  |  |  |  | 
4 | Cn1sccc1=O [2-Methyl-2H-isothiazol-3-one] | 98.5 | 4.6 | 94.0 | S (S represents as being an allergenic substance) | 51.6 | 7.0 | S (S represents as being an allergenic substance) | 50.5 | 1.9 |  |  |  |  |  |  | 
5 | CC(C=O)c1ccccc1 (stereo not drawn) [2-Phenylpropionaldehyde] | 8.5 | 7.3 | 8.0 | S (S represents as being an allergenic substance) | 7.9 | 4.6 | S (S represents as being an allergenic substance) | 6.3 | 6.3 |  |  |  |  |  |  | 
6 | C=CCc1ccc(OC)cc1 [4-Allylanisole] | 15.0 | 0.7 | 27.0 | S (S represents as being an allergenic substance) | 7.9 | 3.9 | S (S represents as being an allergenic substance) | 15.4 | 18 |  |  |  |  |  |  | 
7 | Cn1sc(Cl)cc1=O [5-Chloro-methyl-4-isothiazolin-3-one] | 100.0 | 9.3 | 100.0 | S (S represents as being an allergenic substance) | 54.7 | 17.7 | S (S represents as being an allergenic substance) | 58.8 | 0.009 |  |  |  |  |  |  | 
8 | NC1=CC(=Nc2ccc(N)cc2)C(N)=CC1=Nc1ccc(N)cc1 [Bandrowski's base] | 100.0 | 1.7 | 100.0 | S (S represents as being an allergenic substance) | 50.8 | 5.7 | S (S represents as being an allergenic substance) | 52.9 | 0.008 |  |  |  |  |  |  | 
9 | c1ccc(COOCc2ccccc2)cc1 [Benzyl peroxide] | 100.0 | 63.7 | 100.0 | S (S represents as being an allergenic substance) | 81.9 | 50.6 | S (S represents as being an allergenic substance) | 75.3 | 0.004 |  |  |  |  |  |  | 
10 | ClC(Cl)c1ccccc1 [Benzylidene dichloride] |  |  |  |  |  |  |  |  |  | 2.1 | 1.4 | 0.9 | NS (key: S represents as being an allergenic substance; NS represents as being a non-allergenic substance) | −0.3 | NS (key: S represents as being an allergenic substance; NS represents as being a non-allergenic substance) | −
11 | CC(=O)C=Cc1ccccc1 [Benzylideneacetone] | 67.3 | 10.0 | 44.9 | S (S represents as being an allergenic substance) | 38.6 | 7.2 | S (S represents as being an allergenic substance) | 26.1 | 3.7 |  |  |  |  |  |  | 
12 | CCN(CCNS(C)(=O)=O)c1ccc(N)c(C)c1.CCN(CCNS(C)(=O)=O)c1ccc(N)c(C)c1.O=S(=O)(O)O.O=S(=O)(O)O.O=S(=O)(O)O [CD3] | 100.0 | 8.1 | 76.6 | S (S represents as being an allergenic substance) | 54.0 | 16.5 | S (S represents as being an allergenic substance) | 46.6 | 0.6 |  |  |  |  |  |  | 
13 | Clc1ccccc1 [Chlorobenzene] |  |  |  |  |  |  |  |  |  | 1.3 | 0.1 | 0.0 | NS (key: S represents as being an allergenic substance; NS represents as being a non-allergenic substance) | 0.7 | NS (key: S represents as being an allergenic substance; NS represents as being a non-allergenic substance) | −
14 | O=CC=Cc1ccccc1 [Cinnamaldehyde] | 54.1 | 12.8 | 37.0 |  | 33.4 | 13.1 |  | 25.0 |  |  |  |  |  |  |  | 3%
15 | CC(C=O)Cc1ccc(C(C)C)cc1 (stereo not drawn) [Cyclamen aldehyde] | 12.2 | 0.0 | 3.1 | S (S represents as being an allergenic substance) | 6.1 | 1.7 | NS (NS represents as being a non-allergenic substance) | 2.4 | 22 |  |  |  |  |  |  | 
16 | CCOC(=O)/C=C\C(=O)OCC [Diethyl maleate] | 31.2 | 4.7 | 31.8 | S (S represents as being an allergenic substance) | 18.0 | 7.7 | S (S represents as being an allergenic substance) | 19.8 | 5.8 |  |  |  |  |  |  | 
